The assay addresses Angiotensin-converting enzyme (ACE1). The assay can be described thus: Concentration required for 50% inhibition of Angiotensin I converting enzyme.

By IC50 is commonly meant the point on the concentration scale where inhibition reaches its midpoint. High values mean lower potency, low ones higher potency.

`CCCC(C(=O)O)N1CCCC(CSC(C)=O)C1=O` (configuration not stated) [2-(3-Acetylsulfanylmethyl-2-oxo-piperidin-1-yl)-pentanoic acid]: the IC50 turned out to be 30 µM.

`CC(=O)SCC1CCCN(C(C)C(=O)O)C1=O` (configuration not stated) [2-(3-Acetylsulfanylmethyl-2-oxo-piperidin-1-yl)-propionic acid] yielded an IC50 of 35 µM.

Turning to `CC(=O)SCC1CCN(CC(=O)O)C1=O` (configuration not stated) [(3-Acetylsulfanylmethyl-2-oxo-pyrrolidin-1-yl)-acetic acid], half-maximal inhibition (IC50) required 33 µM.

In the case of `CC(=O)SCC1CCCN(C(C(=O)O)c2ccccc2)C1=O` (configuration not stated) [(3-Acetylsulfanylmethyl-2-oxo-piperidin-1-yl)-phenyl-acetic acid], the IC50 is 19 µM.

The compound `O=C(O)CN1CCC(CS)C1=O` (configuration not stated) [(3-Mercaptomethyl-2-oxo-pyrrolidin-1-yl)-acetic acid] came in with an IC50 of 3.7 µM.

`O=C(O)CN1CCCC(CS)C1=O` (configuration not stated) [(3-Mercaptomethyl-2-oxo-piperidin-1-yl)-acetic acid] yielded an IC50 of 1 µM.

`CC(=O)SCC1CCCN(CC(=O)O)C1=O` (configuration not stated) [(3-Acetylsulfanylmethyl-2-oxo-piperidin-1-yl)-acetic acid]: the IC50 was 100 µM.
